Experiments:
NOD mice [1] = test: Histopathological lesion scoring (Marsh) of small intestine in NOD mouse model of celiac disease; assay type: in vivo; conditions: for Lesion type 0, number of animals / Lesion type 1, number of animals / Lesion type 2, number of animals / Lesion type 3, number of animals: celiac NOD mice
Description: (§1) For the study, the NOD (Non Obese Diabetic) mouse was chosen as an experimental model which, when fed with a standard diet containing gluten, is able to spontaneously develop enteropathy and autoimmune disorders, with alterations of the small intestine similar to those observed. in human celiac disease.
(§2) 103 female NOD mice aged four weeks were then placed in two different enclosure rooms (one for mice intended to follow a standard diet and one for mice intended for a gluten-free diet) and allowed to acclimate for a period of at least seven days.
(§3) They were then randomly assigned to seven different experimental groups. The development of enteropathy was achieved by feeding NOD mice with a standard diet containing gluten and administering gliadin orally with a dosage of 10 μg/kg for ten consecutive days.
(§4) The seven experimental groups are represented in the following table 1.
(§5) At the end of the treatment period the mice were sacrificed. A macroscopic examination was performed and the small intestine was removed from each mouse to be subjected to microscopic examinations.
(§6) In particular, histopathological and histomorphometric examinations were carried out on sections of intestine with a thickness of 5-7 μm placed in paraffin and stained with hematoxylin-eosin.
The scoring system described in Marsh et al, Gut 1990 January; 31 (1): 111-4 was used, to allow comparison between groups with different degrees of inflammatory infiltration and type of lesions observed under the microscope, which provides for the following classification: • lesion type 0: normal intestinal mucosa; • lesion type 1 (infiltrative): normal morphology and architecture of the villi, higher number of intraepithelial lymphocytes; • lesion type 2 (hyperplastic): normal morphology and architecture of the villi, higher number of intraepithelial lymphocytes, hyperplasia of the glandular elements; • lesion type 3 ([…]): different degrees of atrophy of the villi with hypertrophy of the glandular crypts, superficial enterocytes with reduced height, higher number of intraepithelial lymphocytes.
(§7) Fifteen histomorphometric measurements of the height of the villi were then carried out from each of the five small intestine sections evaluated for each mouse. The results of the microscopic histopathological evaluation are summarized in the following table 2, which contains the four degrees of lesion previously described and the number of animals of each group presenting the various types of lesions.

NOD mice [2] = test: Histomorphometric measurement of villus length in small intestine of NOD mice; assay type: in vivo, mouse; conditions: for Villus length: celiac NOD mice
Description: as §1, §2, §3, §4, §5, §6, §7

[3] = tested on: receptor for vitamin D (VDR); test: Immunohistochemistry of VDR in mucosa of small intestine of NOD mice; assay type: in vivo, mouse; conditions: 130 μg/kg vs pathology control, IHC
Method: (§8) Small intestine samples were taken from mice belonging to experimental groups 2 (pathology control) and 7 (cholecalciferol 130 μg/kg) of the experiment described in Example 1 and were processed to evaluate by immunohistochemistry the expression of three proteins: the receptor for vitamin D (VDR), the T-cell marker (CD3) which indicates lymphocyte infiltration and the protein of Zonula Occludens 1 or Zonulin-1 (Z0-1) which is usually released in serum and tissue following destruction of the intestinal epithelial barrier, in particular of the intercellular tight junctions (TJs).
(§9) The samples were washed in xylene, hydrated and washed in water with solutions of ethanol and water to scale. The recovery of the antigen was carried out in sodium citrate buffer using the standard “pressure cooker” protocol. Once the antigen recovery was completed, the samples were placed at room temperature for 10 ‘and washed twice for 2’ in PBS tween (phosphate buffer saline with tween). Non-specific sites were blocked with 200 μL of T20 starting block.
(§10) They were then dispensed on each slide, either 200 μL of solution comprising the primary antibody of interest, or 200 μL of the respective negative control. The slides were then left to incubate overnight in a humid chamber with PBS at 4° C.
(§11) After incubation, repeated washes were carried out in wash buffer at room temperature, after which the endogenous peroxidase was blocked with a 0.3% hydrogen peroxide buffer.
(§12) Subsequently, repeated washes were carried out again in wash buffer at room temperature and the secondary antibody was added, which was left to incubate for 1 hour at room temperature.
(§13) Repeated washings were then carried out again in wash buffer at room temperature. Subsequently, the DAB solution (3′,3′-Diaminobenzidine) was added, which was then blocked by washing at room temperature.
(§14) Finally, counterstaining with Meyer's hematoxylin was carried out and the reaction was stopped by washing in water.
(§15) The slides were then mounted with two drops of aqueous mounting medium and allowed to dry.
(§16) Antibody labelling in villi, crypts and goblet cells was evaluated.

T-cell marker (CD3) = test: Immunohistochemistry of CD3 in mucosa of small intestine of NOD mice; assay type: in vivo, mouse; conditions: IHC
Method: as §8, §9, §10, §11, §12, §13, §14, §15, §16

[4] = tested on: Zonula Occludens 1 or Zonulin-1 (Z0-1); test: Immunohistochemistry of ZO-1 in mucosa of small intestine of NOD mice; assay type: in vivo, mouse; conditions: 130 μg/kg vs vehicle group, IHC
Method: as §8, §9
They were then dispensed on each slide, either 200 μL of solution comprising the primary antibody of interest, or 200 μL of the respective negative control. The slides were then left to incubate overnight in a humid chamber with PBS at 4° C. […]
as §16

NOD mice [5] = test: Atrophy of the intestinal mucosa, Corazza-Villanacci classification, NOD mice; assay type: in vivo, mouse
Method: as §8
The atrophy of the intestinal mucosa was evaluated according to the Corazza-Villanacci classification.

[6] = cited from earlier work
[7] = tested on: tight intercellular junctions (TJs); conditions: preliminary studies in vivo and in vitro, Dong et al. 2018; cited from earlier work
[8] = 5 μg/kg/day orally once a day for 12 weeks, n = 15
[9] = 10 μg/kg/day orally once a day for 12 weeks, n = 15
[10] = 20 μg/kg/day orally once a day for 12 weeks, n = 16
[11] = 50 μg/kg/day orally once a day for 12 weeks, n = 16
[12] = 130 μg/kg/day orally once a day for 12 weeks, n = 15

SMILES: C=C1CC[C@H](O)C/C1=C/C=C1\CCC[C@]2(C)[C@@H]([C@H](C)CCCC(C)C)CC[C@@H]12 [Cholecalciferol]
- Lesion type 0, number of animals (NOD mice [1]; [8]): 0
- Lesion type 1, number of animals (NOD mice [1]; [8]): 2
- Lesion type 2, number of animals (NOD mice [1]; [8]): 13
- Lesion type 3, number of animals (NOD mice [1]; [8]): 0
- Lesion type 0, number of animals (NOD mice [1]; [9]): 0
- Lesion type 1, number of animals (NOD mice [1]; [9]): 9
- Lesion type 2, number of animals (NOD mice [1]; [9]): 4
- Lesion type 3, number of animals (NOD mice [1]; [9]): 2
- Lesion type 0, number of animals (NOD mice [1]; [10]): 0
- Lesion type 1, number of animals (NOD mice [1]; [10]): 7
- Lesion type 2, number of animals (NOD mice [1]; [10]): 4
- Lesion type 3, number of animals (NOD mice [1]; [10]): 5
- Lesion type 0, number of animals (NOD mice [1]; [11]): 3
- Lesion type 1, number of animals (NOD mice [1]; [11]): 3
- Lesion type 2, number of animals (NOD mice [1]; [11]): 9
- Lesion type 3, number of animals (NOD mice [1]; [11]): 1
- Lesion type 0, number of animals (NOD mice [1]; [12]): 3
- Lesion type 1, number of animals (NOD mice [1]; [12]): 3
- Lesion type 2, number of animals (NOD mice [1]; [12]): 6
- Lesion type 3, number of animals (NOD mice [1]; [12]): 3
- General depiction of the lesions compared to the untreated celiac mice (NOD mice [1]; all tested doses (5-130 μg/kg)): overall improvement
- General depiction of the lesions compared to the untreated celiac mice (NOD mice [1]; highest doses, repeated administrations of 50 and 130 μg/kg): significantly improved
- Villus length (NOD mice [2]; [8]): 65.7 ×10 μm
- Villus length (NOD mice [2]; [9]): 71.2 ×10 μm
- Villus length (NOD mice [2]; [10]): 76.1 ×10 μm
- Villus length (NOD mice [2]; [11]): 75.0 ×10 μm
- Villus length (NOD mice [2]; [12]): 78.8 ×10 μm
- Relation between increase in the length of the villi and dose administered (NOD mice [2]; 5-130 μg/kg): dose-dependent relationship
- Villus length compared to untreated celiac controls (NOD mice [2]; all treated groups): longer than those of the untreated celiac controls
- VDR marking in crypts [3]: the same phenomenon was observed in the crypts
- VDR marking in villi [3]: greater expression of VDR
- VDR, intensity of marking of goblet cells [3]: greater intensity of marking
- VDR, number of marked goblet cells [3]: smaller number of marked cells
- CD3 expression (T-cell marker (CD3); 130 μg/kg vs pathology control): less expressed
- CD3 intensity of marking in goblet cells (T-cell marker (CD3); 130 μg/kg vs pathology control): reduction in the intensity of the marking
- CD3 signal in goblet cells compared to the control (T-cell marker (CD3); 130 μg/kg vs pathology control): reduction in the signal
- CD3 labelling of villi and crypts (T-cell marker (CD3); 130 μg/kg): unlabeled
- ZO-1 marking of villi and crypts [4]: more marked in the group treated with the vehicle
- Atrophy of the villi (NOD mice [5]; 130 μg/kg vs pathology control, ZO-1 slides): less marked
- Atrophy in the villi compared to vehicle treated control (NOD mice [5]; 130 μg/kg, VDR slides): reduction in atrophy
- blood half-life (T1/2) ([6]; estimated): 19 to 25 h
- functional half-life ([6]; related to slow release by adipose tissue): several weeks

SMILES: C=C1/C(=C\C=C2/CCC[C@]3(C)[C@@H]([C@H](C)CCCC(C)(C)O)CC[C@@H]23)C[C@@H](O)C[C@@H]1O [calcitriol]
- Effect on the intestinal mucosal barrier towards PT-G [7]: protective action against TJs

From patent US20220273676A1, “CHOLECALCIFEROL FOR USE IN THE TREATMENT OF CELIAC DISEASE” (ABIOGEN PHARMA S.P.A., priority 2019, published 2022)
